Results reported in publication PMC10535624, “Curcuminoid Chalcones: Synthesis, Stability, and New Neuroprotective and Sonosensitising Activities” (Pharmaceuticals, 2023).

Assays:
[1] = target: T1, catalase (CAT) (Aspergillus niger, UniProt P55303); assay: Effect on CAT activity; format: biochemical; conditions: samples 3 mM/dm^3 in DMSO, 0.01 mL; mean ± SEM, n = 3
T1 construct: purchased Sigma C3515
Experimental: (§1) The samples were dissolved in DMSO (Sigma D4540) to obtain a concentration of 3 mM/dm^3.
The method used by Watanabe et al. was used with the following modifications. The reaction mixture was composed of 0.02 mL of EDTA solution (56.5 mM), 0.01 mL of ^the sample, 0.02 mL of 3% H2O2 solution (Sigma H1009), and 0.02 mL of catalase solution (4000-fold diluted, Sigma C3515) (all reagents except the tested sample were diluted in TRIS buffer, pH 7.0, 1 mol/dm^3). The volume was completed to 0.31 mL by the same buffer solution. In a blank sample, DMSO (Sigma D4540) replaced the tested sample. The background of the sample was measured in a mixture composed of 0.01 mL of the sample completed to 0.31 mL by the buffer. The absorbance was read at 240 nm directly after the mixing and after 5 min of incubation (room temperature). The decreased absorbance (depletion of H2O2) in the tested and blank samples was compared. The calibration curve was produced using eleven H2O2 solutions (0.5693–5.693 mM/dm^3). The results are expressed in % inhibition and as H2O2 depletion (mmol of depleted H2O2/dm^3 min).

[2] = test system: glutathione peroxidase (GPx); assay: Effect on GPx activity; format: biochemical; conditions: samples 3 mM/dm^3 in DMSO; mean ± SEM, n = 3
Experimental: (§2) We decided to extend the study by measuring the compounds’ ability to inhibit glutathione reductase (GR) and GPx activities, the human cells’ main endogenous enzymatic defence systems. Therefore, we checked the influence of some curcuminoid chalcones on GR and GPx using in vitro spectroscopic methods (Table 2). Moreover, the effects of curcuminoid chalcones on CAT activity were estimated (Table 2).
as §1
(§3) The analyses were performed strictly as described by Studzińska-Sroka et al..

[3] = target: BChE (Homo sapiens, UniProt P06276); format: biochemical; conditions: samples 3 mM/dm^3 in DMSO, 0.035 mL; mean ± SEM, n = 3
[4] = target: T2, COX-2 (Homo sapiens, UniProt P35354); assay: Effect on COX-2 activity; format: biochemical; conditions: samples 3 mM/dm^3 in DMSO, 0.02 mL; mean ± SEM, n = 3
T2 sequence (P35354 18-604): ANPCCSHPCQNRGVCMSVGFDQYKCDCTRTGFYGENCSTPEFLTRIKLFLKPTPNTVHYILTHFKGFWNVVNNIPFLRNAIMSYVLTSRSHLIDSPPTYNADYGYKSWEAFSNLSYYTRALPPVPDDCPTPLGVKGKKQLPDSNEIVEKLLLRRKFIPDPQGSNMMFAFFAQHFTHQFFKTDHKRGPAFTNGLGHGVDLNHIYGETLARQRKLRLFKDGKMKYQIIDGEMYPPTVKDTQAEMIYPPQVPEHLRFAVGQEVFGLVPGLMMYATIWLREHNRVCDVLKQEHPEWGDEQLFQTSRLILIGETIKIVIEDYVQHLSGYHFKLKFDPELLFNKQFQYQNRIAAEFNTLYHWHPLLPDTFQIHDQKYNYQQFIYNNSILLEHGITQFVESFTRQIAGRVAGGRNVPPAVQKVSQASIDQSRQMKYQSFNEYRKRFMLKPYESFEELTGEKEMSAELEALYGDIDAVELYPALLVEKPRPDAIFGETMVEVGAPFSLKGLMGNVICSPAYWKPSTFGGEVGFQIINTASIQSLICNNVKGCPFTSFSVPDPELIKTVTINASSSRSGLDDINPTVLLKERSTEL

[5] = target: AChE (Homo sapiens, UniProt P22303); assay: Effect on AChE activity (modified Ellman's method); format: biochemical; conditions: samples 3 mM/dm^3 in DMSO, 0.035 mL; mean ± SEM, n = 3
Text: Neurodegenerative diseases are associated with the progressive damage of neurons. During the development of these diseases, there is a loss of nerve cells and a deficiency of […], serotonin, and norepinephrine levels. The ability to inhibit acetyl- (AChE) and butyrylcholinesterase (BChE) activities is seen, among others, in organophosphorus compounds, carbamate insecticides, phenoxyacetic pesticides, and hydrogen peroxide, as well as aliphatic ketones with the carbons C4–C9, e.g., 2,5-hexandione. AChE and BChE show differences in their susceptibility to inhibitors, behaviour in situations involving excess substrate, or substrate binding specificity. Unlike, other esterases, both enzymes hydrolyse choline esters at very high speeds. Thus, in our work, the modified Elman’s method was used to investigate the anti-AChE and anti-BChE effects of curcuminoid chalcone.
as §1
The analysis was performed strictly as described by Studzińska-Sroka et al., except that the volume of the tested samples added to the reaction mixture was 0.035 mL.

[6] = test system: FaDu cells; assay: Sonodynamic cytotoxicity, MTT test; format: cell-based, human; conditions: 40 µM, 8 h, then US 3 min, 3 MHz, 0.8 W/cm^2; MTT 6 h later; compared to untreated cells
Experimental: The cytotoxic effect and sonosensitising properties of selected synthesised chalcone derivatives were evaluated on human SCC-25 tongue and FaDu throat cancer cell lines using the MTT test (Figure 5 and Figure 6).
SCC-25 and FaDu human squamous cell carcinoma cell lines were purchased from the American Type Culture Collection (ATCC). The cells were cultivated in an incubator under optimal culture conditions (temperature: 37 °C; humidity: 95%; carbon dioxide content: 5%). The SCC-25 cell line was cultured in phenol red-free DMEM:F-12 medium complemented with 10% FBS, 2.5 mM L-glutamine, penicillin (100 U/mL), and streptomycin (0.1 mg/mL). The FaDu cells were maintained in phenol red-free Eagle’s Minimum Essential Medium (EMEM) supplemented with 10% fetal bovine serum (FBS), 2.5 mM L-glutamine, penicillin (100 U/mL), and streptomycin (0.1 mg/mL). For the experiments, confluent stock cultures were harvested using the trypsin–EDTA solution and seeded in 35-mm-diameter Petri plates at a density of 1 × 10^6. They were allowed to attach overnight, and the tested compounds were then added at a concentration of 40 µM. Control cells were maintained under the same conditions with 0.1% DMSO. […] The absorbance was measured using an Elx-800 plate reader (BioTek, Bad Friedrichshall, Germany) at 570 nm (reference wavelength 650 nm).

[7] = test system: SCC-25 cells; assay: Sonodynamic cytotoxicity, MTT test; format: cell-based, human; conditions: 40 µM; for Reduction of viability of SCC-25 cells, compound combined with US: 8 h, then US 3 min, 3 MHz, 0.8 W/cm^2, MTT 6 h later, compared to untreated cells
[8] = Hydroxyl radical antioxidant capacity (HORAC); conditions: samples 1 mg/mL DMSO; mean ± SEM, n = 3
[9] = target: T3, glutathione reductase (GR) (Homo sapiens, UniProt P00390); assay: Effect on GR activity; format: biochemical; conditions: samples 3 mM/dm^3 in DMSO; mean ± SEM, n = 3
T3 sequence (P00390 44-522): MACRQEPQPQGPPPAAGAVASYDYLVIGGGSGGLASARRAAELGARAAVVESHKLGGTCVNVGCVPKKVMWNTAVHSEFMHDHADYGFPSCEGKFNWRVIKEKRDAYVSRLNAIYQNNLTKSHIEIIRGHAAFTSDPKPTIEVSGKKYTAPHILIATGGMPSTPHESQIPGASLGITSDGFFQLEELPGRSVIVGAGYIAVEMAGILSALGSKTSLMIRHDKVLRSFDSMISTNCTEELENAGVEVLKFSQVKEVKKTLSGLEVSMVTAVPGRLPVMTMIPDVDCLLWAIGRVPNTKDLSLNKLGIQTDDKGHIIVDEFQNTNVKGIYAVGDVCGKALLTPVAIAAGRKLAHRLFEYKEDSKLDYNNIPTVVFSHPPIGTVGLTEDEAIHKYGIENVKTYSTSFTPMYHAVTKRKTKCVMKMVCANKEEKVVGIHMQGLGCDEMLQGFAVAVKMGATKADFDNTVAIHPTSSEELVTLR
Experimental: as §2, §1, §3

[10] = temperatures below 30 °C ref 43; cited from earlier work

Sequence of BChE (P06276 29-602, species assumed): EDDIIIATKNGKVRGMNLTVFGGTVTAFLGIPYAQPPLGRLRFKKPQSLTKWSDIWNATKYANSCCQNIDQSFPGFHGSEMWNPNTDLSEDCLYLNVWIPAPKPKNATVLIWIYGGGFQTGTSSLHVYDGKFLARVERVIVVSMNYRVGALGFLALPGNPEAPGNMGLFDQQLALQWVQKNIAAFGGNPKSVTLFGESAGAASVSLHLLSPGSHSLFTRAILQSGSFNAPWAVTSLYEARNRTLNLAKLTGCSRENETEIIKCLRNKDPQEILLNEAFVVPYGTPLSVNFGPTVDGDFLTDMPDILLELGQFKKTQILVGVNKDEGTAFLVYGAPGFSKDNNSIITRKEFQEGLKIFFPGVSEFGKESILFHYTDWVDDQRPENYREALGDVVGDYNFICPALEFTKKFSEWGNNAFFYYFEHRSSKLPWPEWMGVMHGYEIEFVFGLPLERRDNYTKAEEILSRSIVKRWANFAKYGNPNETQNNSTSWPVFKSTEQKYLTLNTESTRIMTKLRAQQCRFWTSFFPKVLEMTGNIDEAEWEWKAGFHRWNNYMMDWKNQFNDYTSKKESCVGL
T1 sequence (P55303 whole entry): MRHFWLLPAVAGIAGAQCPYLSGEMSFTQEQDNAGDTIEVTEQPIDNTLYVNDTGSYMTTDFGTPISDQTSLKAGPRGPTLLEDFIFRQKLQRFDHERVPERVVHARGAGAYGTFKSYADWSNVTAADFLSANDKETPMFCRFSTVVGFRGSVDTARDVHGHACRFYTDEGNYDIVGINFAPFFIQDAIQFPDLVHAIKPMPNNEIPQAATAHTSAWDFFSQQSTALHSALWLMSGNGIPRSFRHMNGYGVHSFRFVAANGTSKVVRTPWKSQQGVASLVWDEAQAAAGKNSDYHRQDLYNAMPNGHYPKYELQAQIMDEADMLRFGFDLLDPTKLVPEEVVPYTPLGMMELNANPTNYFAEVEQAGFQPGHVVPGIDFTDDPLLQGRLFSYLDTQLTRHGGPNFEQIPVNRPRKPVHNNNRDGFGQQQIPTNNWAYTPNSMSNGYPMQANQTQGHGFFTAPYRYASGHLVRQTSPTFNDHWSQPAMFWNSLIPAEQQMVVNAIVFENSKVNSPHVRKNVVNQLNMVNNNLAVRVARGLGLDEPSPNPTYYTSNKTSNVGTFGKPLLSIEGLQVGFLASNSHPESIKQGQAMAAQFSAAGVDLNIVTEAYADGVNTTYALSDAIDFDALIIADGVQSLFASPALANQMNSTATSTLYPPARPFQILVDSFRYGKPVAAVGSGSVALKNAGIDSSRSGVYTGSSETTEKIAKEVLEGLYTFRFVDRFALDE
Sequence of AChE (P22303 32-614): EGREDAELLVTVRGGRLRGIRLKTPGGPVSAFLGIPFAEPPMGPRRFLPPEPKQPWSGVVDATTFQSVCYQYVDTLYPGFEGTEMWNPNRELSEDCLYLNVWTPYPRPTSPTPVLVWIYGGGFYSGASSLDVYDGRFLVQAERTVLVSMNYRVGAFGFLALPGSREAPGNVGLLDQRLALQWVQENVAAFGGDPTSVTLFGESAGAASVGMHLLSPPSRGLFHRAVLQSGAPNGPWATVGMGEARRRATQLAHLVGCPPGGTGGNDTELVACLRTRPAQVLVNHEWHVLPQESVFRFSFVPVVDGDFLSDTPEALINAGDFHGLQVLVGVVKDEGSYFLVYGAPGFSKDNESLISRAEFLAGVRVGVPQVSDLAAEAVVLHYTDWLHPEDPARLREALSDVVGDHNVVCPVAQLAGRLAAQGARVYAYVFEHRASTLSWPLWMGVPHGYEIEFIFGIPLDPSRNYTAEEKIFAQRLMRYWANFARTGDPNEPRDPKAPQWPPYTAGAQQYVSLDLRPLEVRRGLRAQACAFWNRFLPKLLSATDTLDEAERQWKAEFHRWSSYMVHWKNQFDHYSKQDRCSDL

| Structure (SMILES) | CAT Inhibition (%) [1] [%] | CAT Inhibition of the H2O2 Depletion [1] [mm/dm^3/min] | GPx Inhibition (%) [2] | GPx activity (NADPH consumption rate) [2] [nmol Depleted NADPH/min] | BChE % (inhibition) [3] [%] | BChE, Equivalent Concentration of Reference Compound Magniflorine [3] [µg/mL] | BChE, Equivalent Concentration of Reference Compound Rivastigmine [3] [µg/mL] | Equivalent Concentration of Acetylsalicylic Acid (COX-2) [4] [mg/mL] | AChE % (inhibition) [5] [%] | AChE, Equivalent Concentration of Reference Compound Magniflorine [5] [µg/mL] | AChE, Equivalent Concentration of Reference Compound Rivastigmine [5] [µg/mL] | Inhibition of viability of FaDu cells, compound combined with US [6] | Reduction of viability of SCC-25 cells, compound combined with US [7] | Reduction of viability of SCC-25 cells, compound alone ([7]; MTT, compared to control) | HORAC, Gallic Acid Equivalents [8] [µg/mL] | GR Inhibition (%) [9] [%] | GR activity (NADPH consumption rate) [9] [nmol Depleted NADPH/min] | pH of greatest stability of water solutions [10] | COX-2 Inhibition (%) [4] |
| --- | --- | --- | --- | --- | --- | --- | --- | --- | --- | --- | --- | --- | --- | --- | --- | --- | --- | --- | --- |
| COc1cc(/C=C/C(=O)c2ccccc2)ccc1O [Compound 1, 3-(4-hydroxy-3-methoxyphenyl)-1-phenylprop-2-en-1-one] | 78.6 ± 2.8 | 0.26 ± 0.01 | 30.3 ± 3.6% | 60.3 ± 7.1 | 78.0 ± 4.6 | 0.30 ± 0.02 | 0.23 ± 0.01 | 6.1 ± 0.1 | 80.5 ± 8.2 | 0.31 ± 0.03 | 0.46 ± 0.05 | significantly reduced viability | ~ 40% | no significant difference | 18.7 ± 3.8 | 7.6 ± 2.4 | 286 ± 90 |  |  |
| CC(C)Cc1ccc(C(C)C(=O)O)cc1 (centres unmarked) [Compound 4, ibuprofen, reference compound] |  |  |  |  |  |  |  |  |  |  |  | no significant difference | no significant difference |  | 35.7 ± 4.2 | 19.9 ± 1.1 | 747 ± 41 | 5–7 |  |
| O=C(/C=C/c1ccccc1)c1ccccc1 [Compound 5] | 12.5 ±2.4 | 0.03 ± 0.01 | did not inhibit and - |  | 58.1 ± 3.4 | 0.23 ± 0.01 | 0.17 ± 0.01 |  | 65.7 ± 4.7 | 0.25 ± 0.02 | 0.37 ± 0.03 |  |  |  | 6.1 ± 2.5 | 29.1 ± 4.4 | 1093 ± 165 |  | - |
| COc1ccc(/C=C/C(=O)c2ccccc2)cc1O [Compound 7, E-3-(3-hydroxy-4-methoxyphenyl)-1-phenylprop-2-en-1-one] | 88.1 ± 4.0 | 0.22 ± 0.01 | 32.4 ± 2.8% | 64.4 ± 5.5 | 94.4 ± 4.1 | 0.37 ± 0.02 | 0.27 ± 0.01 | 7.7 ± 0.1 | 89.8 ± 5.8 | 0.34 ± 0.01 | 0.51 ± 0.03 |  |  |  | 11.5 ± 1.3 | 41.8 ± 3.1 | 1570 ± 116 |  |  |
